Activity calls are given as the source filed them. The calls are words filed in the database; no cut-off is given here.
The molecules below were run on Nucleic Acid (assay: Binding affinity to DNA assessed as DNA adduct formation).
Format: nucleic-acid assay

Row | Structure (SMILES) | Activity
1 | O=C1Nc2c(/N=c3\[nH]cnc4c3ncn4[C@H]3C[C@H](O)[C@@H](CO)O3)c3ccccc3c3c4c(cc1c23)OCO4 | Active
2 | O=C1Nc2c(Nc3nc4c(ncn4[C@H]4C[C@H](O)[C@@H](CO)O4)c(=O)[nH]3)c3ccccc3c3c4c(cc1c23)OCO4 | Active
3 | COc1cccc2c1c(Nc1nc3c(ncn3[C@H]3C[C@H](O)[C@@H](CO)O3)c(=O)[nH]1)c1c3c(cc4c(c32)OCO4)C(=O)N1 | Active
4 | O=C1Nc2cc3ccccc3c3c4c(cc1c23)OCO4 | Active
5 | CC(=O)Nc1ccc2c(c1)Cc1ccccc1-2 | Active
6 | COc1cccc2c1c(/N=c1\[nH]cnc3c1ncn3[C@H]1C[C@H](O)[C@@H](CO)O1)c1c3c(cc4c(c32)OCO4)C(=O)N1 | Active
7 | COc1cccc2c1cc1c3c(cc4c(c32)OCO4)C(=O)N1 | Active
